From PubChem BioAssay (NCI)
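Step 1: Grow cells in 96-well plates. Step 2: Expose to compound for 48 hours at 5 concentrations. Step 3: Interpolate endpoints linearly; if unreached, use highest concentration. Abbreviation: GI50, concentration required for 50% inhibition of growth. TGI denotes the concentration required for complete inhibition of growth.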

How the values were obtained:
Test in all cases: NCI-60 cell line screen, 48 h
[1] = tested on: HCT-15 colon
[2] = tested on: RPMI-8226 leukemia
[3] = tested on: 786-0 renal
[4] = tested on: OVCAR-5 ovarian
[5] = tested on: ACHN renal
[6] = tested on: DU-145 prostate
[7] = tested on: UACC-62 melanoma
[8] = tested on: CAKI-1 renal
[9] = tested on: SN12C renal
[10] = tested on: SNB-19 CNS
[11] = tested on: IGROV1 ovarian
[12] = tested on: HL-60(TB) leukemia
[13] = tested on: LOX IMVI melanoma
[14] = tested on: PC-3 prostate
[15] = tested on: SK-MEL-5 melanoma
[16] = tested on: OVCAR-4 ovarian
[17] = tested on: RXF 393 renal

SMILES	TGI [1] [µM]	TGI [2] [µM]	TGI [3] [µM]	TGI [4] [µM]	TGI [5] [µM]	TGI [6] [µM]	TGI [7] [µM]	TGI [8] [µM]	TGI [9] [µM]	TGI [10] [µM]	TGI [11] [µM]	TGI [12] [µM]	TGI [13] [µM]	TGI [14] [µM]	TGI [15] [µM]	TGI [16] [µM]	TGI [17] [µM]	GI50 [17] [µM]	GI50 [15] [µM]
O=C(NNC(=S)NCc1ccccc1)c1csc(NC(=S)NC2CCCCC2)n1	> 100	58.2	> 100	> 100	> 100	> 100	> 100	> 100	95.7	> 100	> 100	> 100	> 100	> 100	28.2	–	–	–	–
N#CC(C#N)N=Nc1ccc(-c2nc3ccccc3o2)cc1	38.5	–	30.8	36.1	41.6	31.5	26.1	–	30.5	60	93.2	40.2	29	29.2	5.56	> 100	–	–	–
Oc1cc(N2CCCC2)ccc1/C=N/N1C(=S)N(c2ccccc2)C(=Nc2ccccc2)C1=Nc1ccccc1	> 100	> 100	> 100	> 100	> 100	> 100	> 100	> 100	> 100	> 100	> 100	–	–	> 100	> 100	–	46.1	–	–
O=c1cc(-c2ccco2)[nH]c2cc3c(cc12)OCO3	> 100	> 100	> 100	–	> 100	–	> 100	–	> 100	> 100	> 100	> 100	> 100	–	> 100	> 100	92.8	24.9	13.4
c1ccc(C(=NCCC2CNc3ccccc32)c2ccccc2)cc1 (stereo unspecified)	> 100	> 100	> 100	> 100	> 100	> 100	> 100	> 100	–	> 100	> 100	–	–	> 100	> 100	> 100	> 100	–	–
C#CCN(N=O)C(=O)NCCCCC(NC(C)=O)C(=O)NCc1ccccc1 (stereo unspecified)	> 100	> 100	> 100	> 100	> 100	–	> 100	> 100	> 100	> 100	> 100	–	> 100	–	> 100	> 100	> 100	–	–
CN(C)c1ccc(C2CC(c3ccc4ccccc4c3O)=NN2c2ccc([N+](=O)[O-])cc2[N+](=O)[O-])cc1 (stereo unspecified)	> 100	–	> 100	> 100	> 100	> 100	37.2	> 100	> 100	–	> 100	–	–	> 100	–	> 100	> 100	–	–
Nc1ccc(C23CC4CC(C2)CC(c2ccc(N)cc2)(C4)C3)cc1	> 100	27.4	> 100	61.4	> 100	> 100	> 100	> 100	59.5	> 100	> 100	51	> 100	–	26.9	> 100	–	–	–
CN(C)c1snc2c1c(=O)n(C)c(=O)n2C	> 100	> 100	> 100	> 100	> 100	–	> 100	> 100	> 100	> 100	> 100	> 100	> 100	–	> 100	> 100	–	–	–
COC(=O)C(C(=O)C(=O)Nc1cccc([N+](=O)[O-])c1)c1nc2ccc([N+](=O)[O-])cc2[nH]c1=O (stereo unspecified)	> 100	–	> 100	> 100	> 100	–	> 100	> 100	> 100	> 100	> 100	> 100	> 100	–	> 100	> 100	> 100	–	–
CN=C(N)c1ccc(N=C(N)c2ccc(C(N)=Nc3ccc(C(N)=NC)cc3)cc2)cc1	> 100	> 100	> 100	> 100	> 100	–	> 100	> 100	> 100	> 100	> 100	> 100	> 100	–	> 100	> 100	> 100	–	–
CCCCNC(=O)C1C2CCC(O2)C1C(=O)O (stereo unspecified)	70.3	42	31.5	> 100	57.7	–	43.4	–	30.9	58.7	> 100	–	34.7	–	45.8	> 100	8.44	–	–
COC1(OC)C=CC2C1C1C=CC2C1(OC)OC (stereo unspecified)	> 100	> 100	> 100	> 100	> 100	> 100	> 100	> 100	> 100	> 100	> 100	–	> 100	> 100	> 100	> 100	> 100	–	–
CC(=O)n1cc(OP(=O)(Oc2ccccc2)Oc2ccccc2)c2ccccc21	> 100	42.2	> 100	–	–	> 100	42.6	54.3	> 100	> 100	> 100	50.3	62.1	31	40.9	73.3	–	–	–
ON[C@H]1C[C@@H](n2cnc3c(NC4CC4)ncnc32)[C@H](O)[C@@H]1O	> 100	> 100	> 100	> 100	> 100	> 100	> 100	> 100	> 100	> 100	> 100	–	> 100	> 100	> 100	> 100	> 100	–	–
CC(C)(C)OC(=O)NCCNCCNc1ccccc1	> 100	> 100	> 100	> 100	> 100	> 100	> 100	> 100	> 100	> 100	> 100	–	> 100	> 100	> 100	> 100	> 100	–	–
